90 compounds from a melting point compilation (Tetko et al.; mined from patent text by program, amines drawn as free bases though some values may be those of a salt) can be followed below.

As for `Cc1cn(C(C)(C)C(=O)N(C)C)nc1-c1ccc(Cl)cc1`, the melting point (commonly the temperature, or range, at which the solid turns liquid) was in the range of 122 to 124 °C.

`Cc1ccc2c(-c3ccccc3)onc2c1` had a melting point of 77.8 °C.

As for `Cc1nc(Cl)c2cc(C)oc2n1`, the melting point was in the range of 47.6 to 48.1 °C.

`Fc1ccc(Cn2c(NC3CCN(CCc4ccccn4)CC3)nc3cncnc32)cc1` registered a melting point of 172 °C.

As for `CN(C)c1ccc(C(=O)C#Cc2ccncc2)cc1`, the melting point lay within 143 to 145 °C.

As to `Clc1ccc(COCCOc2ccc(-c3ccccc3)cc2)cc1`, the melting point fell in the range of 85 to 87 °C.

The compound `Oc1cc(Br)ccc1Br` returned a melting point of 71 to 74 °C.

Compound `N#Cc1ccc(OCCNc2ccc(C(=O)O)cc2)c2ccccc12` returned a melting point of 254 to 256 °C.

On to `C#CC(=O)Oc1ccc(OCc2ccccc2)cc1`, for which the melting point was 45 to 47.5 °C.

Consider `CCOC(=O)NN=C(c1ccccc1)c1ccncc1`, for which the melting point came to 189 °C.

`COC(=O)COc1cc(C)c(SCc2sc(-c3ccc(C(F)(F)F)cc3)nc2C)c(C)c1` returned a melting point of 113 °C.

For `C#CC1(O)C=CC2C3CCC4=CC(=O)CC(O)C4C3CCC21CC` (stereo not given), the melting point was in the range of 129 to 130 °C.

Regarding `Cc1cc(C)cc(-c2nnc(C(N)=O)o2)c1`, the melting point worked out at 230 °C.

Take `COC(=O)C1CN(C(=O)[C@H](CO)NC(=O)OCc2ccccc2)C1`: the melting point fell in the range of 90 to 95 °C.

On to `COc1cc(OC)c(-c2cc3ccccc3n2C(=O)OC(C)(C)C)cc1/C=C/C(=O)c1ccc(C(=O)O)cc1`, for which the melting point lay within 182 to 183 °C.

In the case of `CON=C(C)c1cccc(Nc2nc(OC)cc(OC)n2)c1C(=O)OC`, the melting point lay within 82 to 84 °C.

Consider `Cc1ccc(-c2ccc3nc(C)c(C(=O)Nc4ccc(CN(C)C5CCOCC5)cc4)cc3c2)cc1`, for which the melting point lay within 157 to 160 °C.

Turning to `CN(C)Cc1cccc(-c2[nH]c3cccc4c3c2CCNC4=O)c1`, the melting point was in the range of 222 to 225 °C.

Turning to `COc1ccc(-n2c(CC(=O)O)c(C(=O)O)c3cc(Oc4ccc(S(C)(=O)=O)cc4)ccc32)cc1`, the melting point turned out to be 222 °C.

`COC(=O)c1ccc(-c2nc(-c3ccc4c(c3)C(C)(C)CCC4(C)C)no2)cc1`: the melting point lay within 166 to 168 °C.

`CN(C)C1(c2ccccc2)CC=C(c2cn(S(=O)(=O)c3ccccc3)c3ccccc23)CC1` (stereo not given) yielded a melting point of 165 to 167 °C.

For the compound `CC(C)(C)OC(=O)Nc1ccc(-c2ccccc2)cc1[N+](=O)[O-]`, the melting point lay within 119 to 121 °C.

In turn, `CCCCCC/C=C/c1cccc(CCC(COC(C)=O)(COC(C)=O)NC(C)=O)c1` came in with a melting point of 84 to 86 °C.

Compound `CCOC(=O)c1ccccc1NC(=O)c1oc2nn(C(C)C)c(C)c2c1C` came in with a melting point of 155 to 158 °C.

The compound `Cc1cc(C(N)=S)c2c(c1C)C(=O)CC2` gave a melting point of 207 to 208 °C.

As to `Cn1cc2c(nc(NC(=O)Nc3ccc(CC(=O)NCCCCNC(=O)OC(C)(C)C)cc3)n3nc(-c4ccco4)nc23)n1`, the melting point was 186 to 193 °C.

In the case of `Cc1cc(CCCOc2c(C)cc(-c3noc(=O)[nH]3)cc2C)on1`, the melting point was 194 to 195 °C.

In the case of `C=CCNC(=O)ON=C1CCOc2ccccc21`, the melting point lay in the range of 83 to 86 °C.

For the compound `c1ccc(CN2CCN(Cc3c[nH]c4ncccc34)CC2)cc1`, the melting point came to 153 °C.

With `CCCNC(=O)C1Cc2[nH]c3ccc(OC)cc3c2C1` (stereo not given), the melting point is 141 to 143 °C.

`COc1cc(Cl)cnc1N` displayed a melting point of 93 to 94 °C.

On to `CC1=NN=C(c2ccc(NC=O)cc2)c2cc3c(cc2C1)OCO3`, for which the melting point lay within 152 to 154 °C.

As for `COc1cc(C(=O)O)c2c(c1OC)OC(C1CC1)C=C2` (stereo not given), the melting point fell in the range of 124 to 126 °C.

The compound `COCn1nc(N2C(=O)c3ccccc3C2=O)c2cc(S(=O)(=O)C(C)C)cc(OCCc3ccccn3)c21` yielded a melting point of 160 to 161 °C.

The compound `NC(N)=Nc1nc(-c2cccc(CNC(=O)CSCc3ccco3)n2)cs1` displayed a melting point of 182 °C.

In turn, `CCCC(=O)Nc1ccn(C2OC(CO)C(O)C2O)c(=O)n1` (stereo not given) had a melting point of 108 to 110 °C.

Compound `Cc1cccc(C)c1NC(=O)N=C1CCCCCN1C` had a melting point of 128 to 130 °C.

`Cc1cc(-c2c(Cl)c(=O)c2=O)c2c(C)ccc(C(C)C)cc1-2` had a melting point of 138 to 139 °C.

Turning to `Cc1cc(O)c(O)cc1S(=O)(=O)c1ccc(Cl)c([N+](=O)[O-])c1`, the melting point lay within 196 to 197 °C.

For the compound `O=C(CCc1ccc(Cl)cc1Cl)NC1CC(=O)c2ccccc2NC1=O` (stereo not given), the melting point is 234 to 236 °C.

`O=C(Nc1ccc(-n2nc(C(F)(F)F)cc2C2CC2)cc1)c1c(Cl)cncc1Cl` displayed a melting point of 182 to 184 °C.

The compound `CCCc1nn(C)c2c(=O)[nH]c(-c3cc(C(=O)N4CCN(C)CC4)ccc3OCC)nc12` had a melting point of 196 to 197 °C.

Consider `CCOC(=O)c1n[nH]c(C)c1Cl`, for which the melting point fell in the range of 106 to 107 °C.

Turning to `C#CCN1C(=O)COc2cc(F)c(-c3ccc(C(F)(F)F)n(C)c3=O)cc21`, the melting point lay in the range of 166 to 168 °C.

In turn, `O=C(c1ccccc1)C(OCc1ccc(Cl)cc1Cl)n1ccnc1` (stereo not given) showed a melting point of 109 to 111 °C.

With `CC(C)(C)OC(=O)CCc1cccc(-c2nc(=O)c3ccc(Cl)cc3s2)n1`, the melting point was 168 °C.

On to `O=CNn1cnc2cc(C(F)(F)F)ccc21`, for which the melting point is 209 to 210 °C.

Consider `Cc1cccc2nc(O)n(C3CCC(=O)NC3=O)c(=O)c12` (stereo not given), for which the melting point was in the range of 373 to 375 °C.

The compound `Cc1c(C)c2c(c(C)c1NC(=O)c1ccc(Cl)cc1)C(c1ccc(C(C)C)cc1)C(C)(C)O2` (stereo not given) had a melting point of 201 to 203 °C.

The compound `N#Cc1c(N2CCCC2)nsc1N` returned a melting point of 198 °C.

The compound `CNc1c(C#N)c(C(F)(F)F)nn1-c1c(Cl)cc(C(F)(F)F)cc1Cl` came in with a melting point of 200 to 202 °C.

Regarding `COc1cc2c(cc1OCc1ccccc1)CCNC2c1ccccc1` (stereo not given), the melting point lay within 118 to 119 °C.

As to `COC(=O)CN1CC(OC)=CC1=O`, the melting point lay in the range of 104 to 106 °C.

As to `CN(C)C(=O)c1ccccc1-c1ccc(C(=O)N2Cc3ccc(C(=O)NCc4cccnc4)n3Cc3ccccc32)cc1`, the melting point was 206 to 207 °C.

`Cc1cnc(CO)c(Cl)c1N1CCOCC1` displayed a melting point of 54 to 55 °C.

`CN1C(=O)C2C3C=CC(CC3)C2S1=O` (stereo not given) came in with a melting point of 118 to 120 °C.

For `Cc1nnc2n1-c1ccc(C#CCn3nc4ccccn4c3=O)cc1C(c1ccccc1F)=NC2`, the melting point lay within 170 to 173 °C.

Consider `CC(C)(C)OC(=O)N1CCN(C2=Nc3ccccc3Sc3ccccc32)CC1`, for which the melting point was 127 to 130 °C.

In the case of `CCCCCCCCCCCCCCCCCCOc1cccc(CC(=O)OC)c1`, the melting point was in the range of 43 to 45 °C.

Regarding `CCOC(=O)CCC(O)c1cnc2c(OC)cccc2c1Nc1ccccc1C` (stereo not given), the melting point fell in the range of 133 to 135 °C.

The compound `CCOC(=O)C1COc2cc(C(C)=O)ccc2O1` (stereo not given) came in with a melting point of 60 °C.

The compound `O=[N+]([O-])c1ccc(Oc2ccc(F)cc2F)cc1` had a melting point of 58 to 62 °C.

On to `O=C(CNc1ccc2[nH]c(=O)sc2c1)N1CCC(Cc2ccc(F)cc2)CC1`, for which the melting point lay in the range of 149 to 155 °C.

`Nc1ccc(C23CC(C2)C(=O)N(CC2CCCCC2)C3=O)cc1` yielded a melting point of 140 to 146 °C.

`CCOC(C)OC1CCC2(C)C3=C(CCC2C1(C)C)C1=CCC(C(C)OCc2ccccc2)C1(C)CC3` (stereo not given) registered a melting point of 138 to 143 °C.

Turning to `COCCNC(=O)c1cccc(-c2ccc(F)c3cc(Cc4cccc(S(C)(=O)=O)c4)sc23)c1`, the melting point lay within 158 to 159 °C.

Compound `CN1C(C(=O)Nc2ccccc(O)c2=O)=C(O)c2ccccc2S1(=O)=O` displayed a melting point of 294 to 296 °C.

`O=c1[nH]c2[nH]c3ccc(Cl)cc3c2c2c(F)cccc12`: the melting point is greater than 300 °C.

`CN(CCCO)C(=O)c1cc2ccccc2c(-c2ccccc2I)n1` came in with a melting point of 51 to 52 °C.

`CCOC(=O)C(=O)N(c1ccccc1N)C(C)(C)C` had a melting point of 64 to 65 °C.

Compound `CC(C)c1ccc2[nH]c(C(=O)c3ccc(Cl)cc3)c(CC(=O)O)c2c1` registered a melting point of 197 to 200 °C.

Consider `Cn1c(Br)c(C#N)c(Br)c1C#N`, for which the melting point was in the range of 175 to 178 °C.

In turn, `COCCc1nc2c(N)nc3c(c2n1CCOCCNC(=O)Nc1ccccc1)CCCC3` gave a melting point of 180 to 182 °C.

For the compound `Cn1nnc2sc(N)cc2c1=O`, the melting point lay within 190 to 194 °C.

As to `O=C(O)c1snc(-c2cc(C(F)(F)F)cc(C(F)(F)F)c2)c1C(=O)O`, the melting point was in the range of 193 to 194 °C.

On to `CC(C)C(C#N)c1ccc(OCc2ccccc2)c(OCc2ccccc2)c1` (stereo not given), for which the melting point was in the range of 75 to 76 °C.

In turn, `Cc1oc(-c2ccccc2)nc1COc1ccc(CO)cc1` yielded a melting point of 128 to 129 °C.

Turning to `CC(C)(C)NC(=O)N1C(=O)[C@H](O)[C@@H]1c1ccccc1`, the melting point was in the range of 148 to 151 °C.

`Cc1cc(C#N)cc(C(=O)c2nc(OCc3ccccc3)nc(OCc3ccccc3)c2C(C)C)c1` displayed a melting point of 129 to 130 °C.

As for `OCc1ccc(Nc2ccccc2)nc1`, the melting point lay in the range of 119 to 122 °C.

`C=CCc1cc2c(c(CC=C)c1O)CCC(=O)N2CCCn1cnnc1` yielded a melting point of 129 to 132 °C.

`Cc1ccc(C2(O)c3c(C)c(N)c(C)c(C)c3OC2(C)C)cc1` (stereo not given) had a melting point of 165 to 166 °C.

`Cn1c(C(=O)O)cc(=O)c2oc3ccc(Cl)cc3c(=O)c21` came in with a melting point of 241 to 242 °C.

The compound `NC(=O)CNC(=O)c1cccc(-c2ccc(F)c3cc(Cc4ccc(F)c(F)c4)sc23)c1` showed a melting point of 161 to 162 °C.

`O=C(O)c1cccc2c(=O)cc(-c3ccc(OCc4ccccc4)cc3)oc12` displayed a melting point of 145 to 147 °C.

`O=C1Cc2cc(NC(=O)C(=O)N3CCC(Cc4ccc(F)cc4)CC3)ccc2N1` returned a melting point of 152 to 154 °C.

With `CCCC(=O)C1c2cccc(O)c2C(=O)c2c(O)cccc21`, the melting point was found to be 138 °C.

Take `CC(C)C(C(=O)O)c1ccc2ccccc2c1` (stereo not given): the melting point was in the range of 129 to 130 °C.

The compound `c1cc(-c2cnn3cc(-c4ccc(OCCN5CCOCC5)cc4)cnc23)cs1` gave a melting point of 149 to 151 °C.

`COc1ccc2c(c1)C(=O)C(C)(C)CC2c1ccc(Cl)cc1` (stereo not given) gave a melting point of 135 to 138 °C.
